Experiments:
[1] = target: T1, Corticotropin-releasing factor receptor 1 (Rattus norvegicus, UniProt P35353); experiment: Antagonistic activity against [125I]-Tyr-ovine CRF binding to Corticotropin releasing factor receptor 1
T1 sequence (P35353 whole entry): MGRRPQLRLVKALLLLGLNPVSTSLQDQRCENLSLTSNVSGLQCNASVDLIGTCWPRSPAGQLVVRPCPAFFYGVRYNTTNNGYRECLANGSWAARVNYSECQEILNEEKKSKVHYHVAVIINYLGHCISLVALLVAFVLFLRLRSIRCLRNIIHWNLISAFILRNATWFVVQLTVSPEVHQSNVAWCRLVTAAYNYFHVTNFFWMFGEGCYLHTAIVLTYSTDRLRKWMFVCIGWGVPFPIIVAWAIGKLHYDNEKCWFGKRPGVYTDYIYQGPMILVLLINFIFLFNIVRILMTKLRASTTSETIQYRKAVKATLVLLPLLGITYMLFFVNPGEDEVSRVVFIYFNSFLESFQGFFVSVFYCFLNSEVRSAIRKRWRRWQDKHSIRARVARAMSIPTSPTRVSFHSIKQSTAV

[2] = target: T2, Corticotropin-releasing factor receptor 2 (Mus musculus, UniProt Q60748); experiment: Antagonistic activity against [125I]-Tyr-ovine CRF binding to Corticotropin releasing factor receptor 2 beta
T2 sequence (Q60748 whole entry): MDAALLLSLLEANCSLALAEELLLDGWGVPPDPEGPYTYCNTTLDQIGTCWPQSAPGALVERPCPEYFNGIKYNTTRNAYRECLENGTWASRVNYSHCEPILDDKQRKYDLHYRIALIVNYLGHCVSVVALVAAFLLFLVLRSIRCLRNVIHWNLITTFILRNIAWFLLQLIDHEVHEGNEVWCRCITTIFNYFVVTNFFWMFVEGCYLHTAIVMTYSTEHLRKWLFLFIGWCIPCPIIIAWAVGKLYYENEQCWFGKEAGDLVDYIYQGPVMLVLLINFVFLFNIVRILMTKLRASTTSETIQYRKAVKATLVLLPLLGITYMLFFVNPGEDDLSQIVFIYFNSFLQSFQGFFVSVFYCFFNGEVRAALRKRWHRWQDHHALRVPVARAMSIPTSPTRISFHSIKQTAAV

[3] = target: T2, Corticotropin-releasing factor receptor 2; experiment: Antagonistic activity against [125I]-Tyr-ovine CRF binding to Corticotropin releasing factor receptor 2 beta (30% inhibition at 100 uM)
[4] = Binding affinity against Galanin receptor; parameters: species or system Homo sapiens
[5] = target: 5-hydroxytryptamine receptor 7 (Homo sapiens, UniProt P34969); experiment: Binding affinity against 5-hydroxytryptamine 7 receptor
Sequence of 5-hydroxytryptamine receptor 7 (P34969 whole entry): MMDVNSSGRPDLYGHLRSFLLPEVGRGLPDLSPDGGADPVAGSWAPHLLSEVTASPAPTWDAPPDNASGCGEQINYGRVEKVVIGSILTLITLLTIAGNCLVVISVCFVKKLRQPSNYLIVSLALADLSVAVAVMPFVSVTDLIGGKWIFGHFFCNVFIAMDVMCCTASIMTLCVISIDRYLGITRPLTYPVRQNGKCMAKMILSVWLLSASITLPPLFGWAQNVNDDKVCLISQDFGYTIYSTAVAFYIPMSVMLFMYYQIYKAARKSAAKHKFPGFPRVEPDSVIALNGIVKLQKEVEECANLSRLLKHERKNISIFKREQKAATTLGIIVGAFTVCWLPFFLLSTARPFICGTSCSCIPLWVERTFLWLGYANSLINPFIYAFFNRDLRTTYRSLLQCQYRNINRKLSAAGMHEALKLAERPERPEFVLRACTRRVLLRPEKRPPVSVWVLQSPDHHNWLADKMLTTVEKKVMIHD

[6] = target: T3, Neuropeptide Y receptor type 1 (Homo sapiens, UniProt P25929); experiment: Binding affinity against Neuropeptide Y receptor type 1 using [125I]PYY
T3 sequence (P25929 whole entry): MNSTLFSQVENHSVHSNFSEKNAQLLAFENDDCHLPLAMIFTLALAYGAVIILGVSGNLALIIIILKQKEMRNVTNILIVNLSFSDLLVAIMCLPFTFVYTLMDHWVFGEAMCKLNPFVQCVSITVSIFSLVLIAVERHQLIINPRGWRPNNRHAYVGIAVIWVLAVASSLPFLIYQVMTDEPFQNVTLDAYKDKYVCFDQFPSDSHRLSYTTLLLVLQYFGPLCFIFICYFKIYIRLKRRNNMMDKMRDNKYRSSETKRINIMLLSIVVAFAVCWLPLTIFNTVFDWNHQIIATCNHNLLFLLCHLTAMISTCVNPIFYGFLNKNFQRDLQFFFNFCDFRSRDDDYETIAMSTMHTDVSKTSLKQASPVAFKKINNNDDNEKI

[7] = Binding affinity to Glp1 receptor using [125I]Glp-1 as radioligand
[8] = target: D(2) dopamine receptor (Homo sapiens, UniProt P14416); experiment: Binding affinity against dopamine D2 receptor
Sequence of D(2) dopamine receptor (P14416 whole entry): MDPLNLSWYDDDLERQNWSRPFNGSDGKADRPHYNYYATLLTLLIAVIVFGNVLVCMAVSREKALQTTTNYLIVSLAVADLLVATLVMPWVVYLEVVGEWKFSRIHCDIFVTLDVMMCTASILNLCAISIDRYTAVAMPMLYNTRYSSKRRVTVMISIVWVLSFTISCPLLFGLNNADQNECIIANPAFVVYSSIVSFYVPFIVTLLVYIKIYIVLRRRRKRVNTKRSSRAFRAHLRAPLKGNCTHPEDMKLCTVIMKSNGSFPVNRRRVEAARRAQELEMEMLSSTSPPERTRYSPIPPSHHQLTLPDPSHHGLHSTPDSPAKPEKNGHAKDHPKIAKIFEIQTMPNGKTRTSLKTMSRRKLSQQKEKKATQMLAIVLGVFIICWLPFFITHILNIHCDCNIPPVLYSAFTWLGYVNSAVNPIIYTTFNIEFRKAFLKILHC

[9] = Binding affinity against Glucagon receptor using [125I]glucagon
[10] = target: 5-hydroxytryptamine receptor 6 (Homo sapiens, UniProt P50406); experiment: Binding affinity against 5-hydroxytryptamine 6 receptor
Sequence of 5-hydroxytryptamine receptor 6 (P50406 whole entry): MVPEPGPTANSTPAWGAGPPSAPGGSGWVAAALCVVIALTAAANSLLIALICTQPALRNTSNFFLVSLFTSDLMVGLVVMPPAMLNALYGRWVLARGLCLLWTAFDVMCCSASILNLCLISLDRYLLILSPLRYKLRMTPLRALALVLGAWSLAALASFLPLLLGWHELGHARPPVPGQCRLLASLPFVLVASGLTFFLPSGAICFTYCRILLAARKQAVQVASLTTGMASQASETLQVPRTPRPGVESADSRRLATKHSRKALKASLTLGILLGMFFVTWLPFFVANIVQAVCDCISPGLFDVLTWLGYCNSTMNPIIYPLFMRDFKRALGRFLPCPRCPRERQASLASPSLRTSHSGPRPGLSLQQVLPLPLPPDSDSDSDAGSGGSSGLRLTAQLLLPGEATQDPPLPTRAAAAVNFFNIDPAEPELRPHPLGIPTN

Structure (SMILES)	Ki [1] [nM]	Ki [2] [nM]	other results
NCCNC(=O)c1ccc2c3c(ncnc13)-c1ccccc1C2=O	> 10000	> 10000	
O=C(O)c1ccc2c3c(ncnc13)-c1ccccc1C2=O			Ki [3]: > 100000 nM
CN(C)C(=O)c1ccc2c3c(ncnc13)-c1ccccc1C2=O		> 10000	
N[C@H]1CCCC[C@H]1NC(=O)c1ccc2c3c(ncnc13)-c1ccccc1C2=O	> 10000	> 10000	
N[C@@H]1CCCC[C@H]1NC(=O)c1ccc2c3c(ncnc13)-c1ccccc1C2=O	> 10000	> 10000	

Further molecules by falling Ki [2], results first:

Ki [1] [nM]	Ki [2] [nM]	Structure (SMILES)	other results
270	830	NCCNC(=O)c1c2c(c3c(O)c4ccccc4c4ncnc1c34)=N[C@H]1CCCC[C@H]1N2	
2050	650	NCCNC(=O)c1c2c(c3c(O)c4ccccc4c4ncnc1c34)=NCCN2	
180	86	N[C@@H]1CCCC[C@H]1NC(=O)c1c2c(c3c(O)c4ccccc4c4ncnc1c34)=N[C@H]1CCCC[C@@H]1N2	
200	75	NCCNC(=O)c1c2c(c3c4c(ncnc14)-c1ccccc1C3=O)N[C@H]1CCCC[C@@H]1N2	
160	45	NCCNC(=O)c1c2c(c3c(O)c4ccccc4c4ncnc1c34)=N[C@@H]1CCCC[C@H]1N2	
110	20	N[C@H]1CCCC[C@@H]1NC(=O)c1c2c(c3c4c(ncnc14)-c1ccccc1C3=O)N[C@@H]1CCCC[C@H]1N2	Ki [4]: > 10000 nM; Ki [5]: 1600 nM; Ki [6]: 4200 nM; Ki [7]: > 10000 nM; Ki [8]: 3200 nM; Ki [9]: > 10000 nM; Ki [10]: > 10000 nM

Reference: ChEMBL document CHEMBL1132065, “Synthesis and biological activity of oxo-7H-benzo[e]perimidine-4-carboxylic acid derivatives as potent, nonpeptide corticotropin releasing factor (CRF) receptor antagonists” (Bioorg Med Chem Lett, 1999)
